The species named for data set [1] is Homo sapiens. Briefly: Liver toxicity in human assessed as induction of drug-induced liver injury by measuring severity class index.
Data set [2] is filed under the species Homo sapiens. The experiment in a line: Liver toxicity in human assessed as induction of drug-induced liver injury by measuring verified drug-induced liver injury concern status.

These results are taken from ChEMBL document CHEMBL4028802, “DILIrank: the largest reference drug list ranked by the risk for developing drug-induced liver injury in humans” (Drug Discov Today, 2016).
Wherever DILI severity class is given: key of the grades not given here.

With `CO[C@H]1C[C@@H]2CC[C@@H](C)[C@@](O)(O2)C(=O)C(=O)N2CCCC[C@H]2C(=O)O[C@H]([C@H](C)C[C@@H]2CC[C@@H](O)[C@H](OC)C2)CC(=O)[C@H](C)/C=C(\C)[C@@H](O)[C@@H](OC)C(=O)[C@H](C)C[C@H](C)/C=C/C=C/C=C/1C` [SIROLIMUS], the DILI_severity_class in the data set listed under Homo sapiens [1] is 8. In addition, the DILI_Concern entry in the data set listed under Homo sapiens [2] is reported as “Less-Dili-Concern”.
With `CC(C)(O)c1ccccc1CC[C@@H](SCC1(CC(=O)O)CC1)c1cccc(/C=C/c2ccc3ccc(Cl)cc3n2)c1` [MONTELUKAST], the DILI_severity_class in the data set filed under Homo sapiens [1] is reported as 3. In addition, the DILI_Concern result in the data set listed under Homo sapiens [2] is recorded as “Less-Dili-Concern”.
Taken in the same sequence, the figures for `Cc1onc(-c2ccccc2Cl)c1C(=O)N[C@@H]1C(=O)N2[C@@H]1SC(C)(C)[C@@H]2C(=O)O` [CLOXACILLIN] were 3 and “Less-Dili-Concern”.
As for `CCOC(=O)C1=C(COCCN)NC(C)=C(C(=O)OC)C1c1ccccc1Cl` (stereo unspecified) [AMLODIPINE], in the data set listed under Homo sapiens [1], the DILI_severity_class is on record as 5. Besides, the DILI_Concern entry in the data set listed under Homo sapiens [2] is “Less-Dili-Concern”.
For `CO[C@H]1/C=C/O[C@@]2(C)Oc3c(C)c(O)c4c(O)c(c(/C=N/N5CCN(C)CC5)c(O)c4c3C2=O)NC(=O)/C(C)=C\C=C\[C@H](C)[C@H](O)[C@@H](C)[C@@H](O)[C@@H](C)[C@H](OC(C)=O)[C@@H]1C` [RIFAMPIN], the DILI_severity_class in the data set filed under Homo sapiens [1] worked out at 8. Further, the DILI_Concern result in the data set filed under Homo sapiens [2] is “Most-Dili-Concern”.
Consider `CC(C)c1nc(CN(C)C(=O)N[C@H](C(=O)N[C@@H](Cc2ccccc2)C[C@H](O)[C@H](Cc2ccccc2)NC(=O)OCc2cncs2)C(C)C)cs1` [RITONAVIR], for which, in the data set filed under Homo sapiens [1], the DILI_severity_class was 8. Besides, in the data set filed under Homo sapiens [2], the DILI_Concern result was “Most-Dili-Concern”.
Taken in the same sequence, the figures for `O=C(O)C[C@H](O)C[C@H](O)/C=C/c1c(C2CC2)nc2ccccc2c1-c1ccc(F)cc1` [PITAVASTATIN] were 3 and “Ambiguous-Dili-Concern”.
`NNC(=O)c1ccncc1` [ISONIAZID]: in the data set filed under Homo sapiens [1], the DILI_severity_class was 8. The DILI_Concern result in the data set listed under Homo sapiens [2] is given as “Most-Dili-Concern”.
Taken in the same sequence, the figures for `CC(O)(CS(=O)(=O)c1ccc(F)cc1)C(=O)Nc1ccc(C#N)c(C(F)(F)F)c1` (stereo unspecified) [BICALUTAMIDE] were 8 and “Most-Dili-Concern”.
Taken in the same sequence, the figures for `O=C1O[C@H]([C@@H](O)CO)C(O)=C1O` [ASCORBIC ACID] were 0 and “No-Dili-Concern”.
As for `COC(=O)[C@H](c1ccccc1Cl)N1CCc2sccc2C1` [CLOPIDOGREL], the DILI_severity_class in the data set listed under Homo sapiens [1] was determined as 7. Moreover, in the data set listed under Homo sapiens [2], the DILI_Concern result is recorded as “Less-Dili-Concern”.
Consider `Cc1ccc(NC(=O)c2ccc(CN3CCN(C)CC3)cc2)cc1Nc1nccc(-c2cccnc2)n1` [IMATINIB], for which, in the data set filed under Homo sapiens [1], the DILI_severity_class was 8. The DILI_Concern entry in the data set listed under Homo sapiens [2] is recorded as “Most-Dili-Concern”.
For `O=C(O)Cc1csc(-c2ccc(Cl)cc2)n1` [FENCLOZIC ACID] the same measures were 8 and “Most-Dili-Concern”.
Taken in the same sequence, the figures for `Cn1c(=O)c2c(ncn2C)n(C)c1=O` [CAFFEINE] were 0 and “No-Dili-Concern”.
With `COc1cc2nc(N(C)CCCNC(=O)C3CCCO3)nc(N)c2cc1OC` (stereo unspecified) [ALFUZOSIN], the DILI_severity_class in the data set filed under Homo sapiens [1] is recorded as 5. Moreover, the DILI_Concern entry in the data set filed under Homo sapiens [2] is reported as “Less-Dili-Concern”.
For `CCOC(=O)C1(c2ccccc2)CCN(C)CC1` [MEPERIDINE] the same measures were 0 and “No-Dili-Concern”.
For `COc1ccccc1OCC(O)COC(N)=O` (stereo unspecified) [METHOCARBAMOL] the same measures were 5 and “Ambiguous-Dili-Concern”.
On to `Cc1ccc(Cl)c(Nc2ccccc2C(=O)O)c1Cl` [MECLOFENAMIC ACID], for which the DILI_severity_class in the data set filed under Homo sapiens [1] amounted to 3. In the data set filed under Homo sapiens [2], the DILI_Concern result is listed as “Ambiguous-Dili-Concern”.
For `CN1CCCC(CN2c3ccccc3Sc3ccccc32)C1` (stereo unspecified) [MEPAZINE] the same measures were 8 and “Most-Dili-Concern”.
Taken in the same sequence, the figures for `CC(=O)OCC(=O)[C@@]1(O)CC[C@H]2[C@@H]3CCC4=CC(=O)CC[C@]4(C)[C@H]3C(=O)C[C@@]21C` [CORTISONE ACETATE] were 0 and “No-Dili-Concern”.
Taken in the same sequence, the figures for `CN(C)CCC[C@@]1(c2ccc(F)cc2)OCc2cc(C#N)ccc21` [ESCITALOPRAM] were 7 and “Less-Dili-Concern”.
As for `C[C@]12CC[C@@H]3c4ccc(O)cc4CC[C@H]3[C@@H]1CC[C@@H]2O` [ESTRADIOL], in the data set filed under Homo sapiens [1], the DILI_severity_class was determined as 2. Also, in the data set filed under Homo sapiens [2], the DILI_Concern entry is “Less-Dili-Concern”.
Taken in the same sequence, the figures for `CN1CCN(C2=Nc3ccccc3Oc3ccc(Cl)cc32)CC1` [LOXAPINE] were 5 and “Ambiguous-Dili-Concern”.
For the compound `CN1CCN(C2=Nc3cc(Cl)ccc3Nc3ccccc32)CC1` [CLOZAPINE], the DILI_severity_class in the data set filed under Homo sapiens [1] came out at 5. Further, in the data set listed under Homo sapiens [2], the DILI_Concern result is “Most-Dili-Concern”.
For `O=C(O)C1N=C(c2ccccc2)c2cc(Cl)ccc2NC1=O` (stereo unspecified) [CLORAZEPIC ACID] the same measures were 3 and “Ambiguous-Dili-Concern”.
Consider `COc1cc(C(C)=O)ccc1OCCCN1CCC(c2noc3cc(F)ccc23)CC1` [ILOPERIDONE], for which the DILI_severity_class in the data set listed under Homo sapiens [1] is listed as 2. Further, the DILI_Concern result in the data set filed under Homo sapiens [2] is “Ambiguous-Dili-Concern”.
Taken in the same sequence, the figures for `O.O=P(O)(O)C(O)(Cn1ccnc1)P(=O)(O)O` [ZOLEDRONIC ACID] were 0 and “Less-Dili-Concern”.
In the case of `CC(=O)N[C@@H](CS)C(=O)O` [ACETYLCYSTEINE], the DILI_severity_class in the data set filed under Homo sapiens [1] worked out at 0. Besides, the DILI_Concern entry in the data set listed under Homo sapiens [2] is “No-Dili-Concern”.
For `CCCc1nc2c(C)cc(-c3nc4ccccc4n3C)cc2n1Cc1ccc(-c2ccccc2C(=O)O)cc1` the same measures were 3 and “Less-Dili-Concern”.
For `COc1cccc2c1C(=O)c1c(O)c3c(c(O)c1C2=O)C[C@@](O)(C(C)=O)C[C@@H]3O[C@H]1C[C@H](N)[C@H](O)[C@H](C)O1` [DAUNORUBICIN] the same measures were 0 and “No-Dili-Concern”.
On to `Cn1c(CCCC(=O)O)nc2cc(N(CCCl)CCCl)ccc21` [BENDAMUSTINE], for which the DILI_severity_class in the data set filed under Homo sapiens [1] is on record as 0. In addition, the DILI_Concern entry in the data set listed under Homo sapiens [2] is “No-Dili-Concern”.
For `CC(C)c1c(C(=O)Nc2ccccc2)c(-c2ccccc2)c(-c2ccc(F)cc2)n1CC[C@@H](O)C[C@@H](O)CC(=O)O` [ATORVASTATIN] the same measures were 5 and “Most-Dili-Concern”.
Turning to `CC(C)OC(=O)C(C)(C)Oc1ccc(C(=O)c2ccc(Cl)cc2)cc1` [FENOFIBRATE], the DILI_severity_class in the data set listed under Homo sapiens [1] came to 3. Also, in the data set listed under Homo sapiens [2], the DILI_Concern result is “Less-Dili-Concern”.
For `CN1C2CCCC1CC(NC(=O)c1nn(C)c3ccccc13)C2` (stereo unspecified) [GRANISETRON] the same measures were 3 and “Ambiguous-Dili-Concern”.
Take `OC(CCN1CCCCC1)(c1ccccc1)C1CC2C=CC1C2` (stereo unspecified) [BIPERIDEN]: the DILI_severity_class in the data set filed under Homo sapiens [1] is listed as 0. In addition, in the data set filed under Homo sapiens [2], the DILI_Concern result is “No-Dili-Concern”.
For `CN[C@H](CC(C)C)C(=O)N[C@H]1C(=O)N[C@@H](CC(N)=O)C(=O)N[C@H]2C(=O)N[C@H]3C(=O)N[C@H](C(=O)N[C@H](C(=O)O)c4cc(O)cc(O)c4-c4cc3ccc4O)[C@H](O)c3ccc(c(Cl)c3)Oc3cc2cc(c3O[C@@H]2O[C@H](CO)[C@@H](O)[C@H](O)[C@H]2O[C@H]2C[C@](C)(N)[C@H](O)[C@H](C)O2)Oc2ccc(cc2Cl)[C@H]1O` [VANCOMYCIN] the same measures were 0 and “Less-Dili-Concern”.
In the case of `Cc1nnc(C(=O)NC(C)(C)c2nc(C(=O)NCc3ccc(F)cc3)c(O)c(=O)n2C)o1`, the DILI_severity_class in the data set listed under Homo sapiens [1] was determined as 7. In the data set filed under Homo sapiens [2], the DILI_Concern result is given as “Most-Dili-Concern”.
`Nc1ncn([C@H]2C[C@H](O)[C@@H](CO)O2)c(=O)n1` [DECITABINE]: in the data set filed under Homo sapiens [1], the DILI_severity_class came out at 4. For the same compound, in the data set listed under Homo sapiens [2], the DILI_Concern entry is on record as “Ambiguous-Dili-Concern”.
Taken in the same sequence, the figures for `C[n+]1ccccc1/C=N/O` [PRALIDOXIME] were 3 and “Ambiguous-Dili-Concern”.
As for `C[C@]1(O)CC[C@H]2[C@@H]3CCC4=CC(=O)CC[C@]4(C)[C@@]3(F)[C@@H](O)C[C@@]21C` [FLUOXYMESTERONE], in the data set listed under Homo sapiens [1], the DILI_severity_class came out at 8. Further, the DILI_Concern entry in the data set listed under Homo sapiens [2] is given as “Ambiguous-Dili-Concern”.
Taken in the same sequence, the figures for `CC(C)C[C@H](NC(=O)[C@H](Cc1c[nH]c2ccccc12)NC(=O)[C@H](Cc1ccc(O)cc1)NC(=O)[C@H](CO)NC(=O)[C@H](Cc1c[nH]c2ccccc12)NC(=O)[C@H](Cc1c[nH]cn1)NC(=O)[C@@H]1CCC(=O)N1)C(=O)N[C@@H](CCCNC(=N)N)C(=O)N1CCC[C@H]1C(=O)NCC(N)=O.O=C(O)c1cc2ccccc2c(Cc2c(O)c(C(=O)O)cc3ccccc23)c1O` were 3 and “Less-Dili-Concern”.
Taken in the same sequence, the figures for `CCN(CC)CCNC(=O)c1c(C)[nH]c(/C=C2\C(=O)Nc3ccc(F)cc32)c1C` [SUNITINIB] were 8 and “Most-Dili-Concern”.
For `CCCN(CCC)S(=O)(=O)c1ccc(C(=O)O)cc1` [PROBENECID] the same measures were 6 and “Ambiguous-Dili-Concern”.
With `O=C(O)CCc1nc(-c2ccccc2)c(-c2ccccc2)o1` [OXAPROZIN], the DILI_severity_class in the data set filed under Homo sapiens [1] amounted to 3. For the same compound, the DILI_Concern result in the data set listed under Homo sapiens [2] was “Less-Dili-Concern”.
Consider `CN(CCOc1ccc(NS(C)(=O)=O)cc1)CCc1ccc(NS(C)(=O)=O)cc1` [DOFETILIDE], for which, in the data set listed under Homo sapiens [1], the DILI_severity_class is 0. In the data set listed under Homo sapiens [2], the DILI_Concern entry was “No-Dili-Concern”.
Taken in the same sequence, the figures for `CCN(CC)C(C)C(=O)c1ccccc1` (stereo unspecified) [DIETHYLPROPION] were 0 and “No-Dili-Concern”.
As to `C=CCN1C[C@H](C(=O)N(CCCN(C)C)C(=O)NCC)C[C@@H]2c3cccc4[nH]cc(c34)C[C@H]21` [CABERGOLINE], the DILI_severity_class in the data set listed under Homo sapiens [1] is listed as 0. Moreover, the DILI_Concern entry in the data set filed under Homo sapiens [2] is recorded as “No-Dili-Concern”.
For `O=C(O)c1cc(-c2ccccc2)nc2ccccc12` [CINCHOPHEN] the same measures were 8 and “Most-Dili-Concern”.
